Assay results as given in patent US8148424B2, “Tocopherols, tocotrienols, other chroman and side chain derivatives and uses thereof” (Research Development Foundation, priority 1998, dated 2012).
Converted amounts (≈) assume the structure as drawn.

How the values were obtained:
[1] = system: C-170; experiment: Bioassay for apoptosis (apoptotic EC50); format: cell-based, human; conditions: for EC50: Homo sapiens, C170, C-170, unit inferred
Method: (§1) Cells were cultured at 1.5×10^5 cells/well in 12 well plates. Cells were allowed to adhere overnight, then incubated with novel test compounds at 0.01, 0.1, 1, 5, 10 & 20 μg/mL for 1, 2 and 3 days. After treatment, cells (floating+trypsin released adherent cells) were pelleted, washed and stained with 2 μg/ml DAPI (4′,6-diamidine-2′-phenylindole dihydrochloride) in 100% methanol for 15 minutes at 37° C. and/or 3′-OH ends resulting from DNA fragmentation were detected with the TUNEL (terminal deoxynucleotidyl transferase-mediated dUTP-X 3′ nick end-labeling) technique, and then viewed using a Zeiss ICM 405 microscope. Cells whose nucleus contained clearly condensed or fragmented chromatin or stained for fragmented DNA in the TUNEL assay were scored as apoptotic. Data are presented as percent cells undergoing apoptosis.

[2] = system: HL-60; experiment: Bioassay for apoptosis (apoptotic EC50); format: cell-based, human; conditions: for EC50: Homo sapiens, HL-60, HL-60, unit inferred
Method: as §1

[3] = system: LnCaP; experiment: Bioassay for apoptosis (apoptotic EC50); format: cell-based, human; conditions: for EC50: Homo sapiens, unit inferred
Method: as §1

[4] = system: MCF-7; experiment: Bioassay for apoptosis (apoptotic EC50); format: cell-based, human; conditions: for EC50: Homo sapiens, MCF7, MCF-7, unit inferred
Method: as §1

[5] = system: MDA-MB-231; experiment: Bioassay for apoptosis (apoptotic EC50); format: cell-based, human; conditions: Homo sapiens, MDA-MB-231, MDA-MB-231; unit inferred
Method: as §1

[6] = system: MDA-MB-435; experiment: Bioassay for apoptosis (apoptotic EC50); format: cell-based, human; conditions: for EC50: Homo sapiens, MDA-MB-435, MDA-MB-435, unit inferred, read-out: apoptotic EC50
Method: as §1

[7] = system: ME-180; experiment: Bioassay for apoptosis (apoptotic EC50); format: cell-based, human; conditions: for EC50: Homo sapiens, ME-180, ME-180, unit inferred
Method: as §1

[8] = system: PC-3; experiment: Bioassay for apoptosis (apoptotic EC50); format: cell-based, human; conditions: Homo sapiens, PC-3, PC-3; unit inferred
Method: as §1

[9] = system: RL-95-2; experiment: Bioassay for apoptosis (apoptotic EC50); format: cell-based, human; conditions: Homo sapiens, RL95-2, RL-95-2; unit inferred
Method: as §1

[10] = system: HMEC; experiment: Bioassay for apoptosis (apoptotic EC50); format: cell-based; conditions: Homo sapiens, unit inferred
Method: as §1

[11] = system: MCF-10A; experiment: Bioassay for apoptosis (apoptotic EC50); format: cell-based; conditions: Homo sapiens, unit inferred
Method: as §1

[12] = system: T47D; experiment: Bioassay for apoptosis (apoptotic EC50); format: cell-based; conditions: Homo sapiens, unit inferred
Method: as §1

[13] = system: human cancer cells from a wide variety of cell lineages; experiment: Apoptosis induction in a battery of tumor cells; format: cell-based; conditions: breast, prostate, leukemia/lymphoid, cervical, ovarian, endometrial, colon, lung cell lines
Method: as §1

[14] = system: A-549; experiment: Bioassay for apoptosis (apoptotic EC50); format: cell-based, human
Method: as §1

[15] = system: HT-29; experiment: Bioassay for apoptosis (apoptotic EC50); format: cell-based, human; conditions: Homo sapiens, unit inferred
Method: as §1

[16] = system: Jurkat; experiment: Bioassay for apoptosis (apoptotic EC50); format: cell-based, human
Method: as §1

[17] = system: DU-145; experiment: Bioassay for apoptosis (apoptotic EC50); format: cell-based, human; conditions: unit not given, in µg/mL
Method: as §1

Question: What does the source list for Cc1cc(OCC(=O)O)c(C)c2c1O[C@](C)(CCC[C@H](C)CCC[C@H](C)CCCC(C)C)CC2 [Compound 7, 2,5,8-trimethyl-(2R-(4R,8R,12-trimethyltridecyl)chroman-6-yloxy) acetic acid]?
Answer: EC50 [1]: 10 to 20 µg/mL (≈ 21.1 to 42.1 µM); EC50 [2]: 5 to 10 µg/mL (≈ 10.5 to 21.1 µM); EC50 [3]: 2.5 to 5 µg/mL (≈ 5.27 to 10.5 µM); EC50 [4]: 10 to 20 µg/mL (≈ 21.1 to 42.1 µM); EC50 [5]: 5 to 10 µg/mL (≈ 10.5 to 21.1 µM); EC50 [6]: 5 to 10 µg/mL (≈ 10.5 to 21.1 µM); EC50 [7]: 5 to 10 µg/mL (≈ 10.5 to 21.1 µM); EC50 [8]: 5 to 10 µg/mL (≈ 10.5 to 21.1 µM); EC50 [9]: 5 to 10 µg/mL (≈ 10.5 to 21.1 µM); EC50 [10]: > 20 µg/mL; EC50 [11]: > 20 µg/mL; EC50 [12]: > 20 µg/mL; growth inhibitory (apoptotic inducing) properties specific for human cancer cells [13]: effective

Question: How did the EC50 [1] turn out when Cc1c(OCC(=O)O)cc2c(c1C)O[C@](C)(CCC[C@H](C)CCC[C@H](C)CCCC(C)C)CC2 [Compound 8, 2,7,8-trimethyl-(2R-(4R,8R,12-trimethyltridecyl)chroman-6-yloxy)acetic acid] was run?
Answer: 10 to 20 µg/mL (≈ 21.1 to 42.1 µM)

Question: And the EC50 [2]?
Answer: 10 to 20 µg/mL (≈ 21.1 to 42.1 µM)

Question: What about the EC50 [3] of the same compound?
Answer: 5 to 10 µg/mL (≈ 10.5 to 21.1 µM)

Question: What about the EC50 [4] of the same compound?
Answer: 10 to 20 µg/mL (≈ 21.1 to 42.1 µM)

Question: And the EC50 [5]?
Answer: 5 to 10 µg/mL (≈ 10.5 to 21.1 µM)

Question: And the EC50 [6]?
Answer: 5 to 10 µg/mL (≈ 10.5 to 21.1 µM)

Question: What about the EC50 [7] of the same compound?
Answer: 5 to 10 µg/mL (≈ 10.5 to 21.1 µM)

Question: And the EC50 [8]?
Answer: 5 to 10 µg/mL (≈ 10.5 to 21.1 µM)

Question: And the EC50 [9]?
Answer: 1 to 5 µg/mL (≈ 2.11 to 10.5 µM)

Question: And the EC50 [10]?
Answer: > 20 µg/mL

Question: What about the EC50 [11] of the same compound?
Answer: > 20 µg/mL

Question: What about the “growth inhibitory (apoptotic inducing) properties specific for human cancer cells” value (from here on “growth inhibitory”) [13] of the same compound?
Answer: effective

Question: Which results are given for Cc1cc(OCC(=O)O)cc2c1O[C@](C)(CCC[C@H](C)CCC[C@H](C)CCCC(C)C)CC2 [Compound 9, 2,8-dimethyl-(2R-(4R,8R,12-trimethyltridecyl)chroman-6-yloxy)acetic acid]?
Answer: EC50 [1]: > 20 µg/mL; EC50 [2]: 10 to 20 µg/mL (≈ 21.7 to 43.4 µM); EC50 [3]: 5 to 10 µg/mL (≈ 10.9 to 21.7 µM); EC50 [4]: 10 to 20 µg/mL (≈ 21.7 to 43.4 µM); EC50 [5]: 5 to 10 µg/mL (≈ 10.9 to 21.7 µM); EC50 [6]: 5 to 10 µg/mL (≈ 10.9 to 21.7 µM); EC50 [7]: 5 to 10 µg/mL (≈ 10.9 to 21.7 µM); EC50 [8]: 5 to 10 µg/mL (≈ 10.9 to 21.7 µM); EC50 [9]: 5 to 10 µg/mL (≈ 10.9 to 21.7 µM); EC50 [10]: > 20 µg/mL; EC50 [11]: > 20 µg/mL; growth inhibitory (apoptotic inducing) properties specific for human cancer cells [13]: effective

Question: Which EC50 [1] does the source give for COC(=O)COc1c(C)c(C)c2c(c1C)CC[C@@](C)(CCC[C@H](C)CCC[C@H](C)CCCC(C)C)O2 [Compound 11, Methyl 2,5,7,8-tetramethyl-(2R-(4R,8R,12-trimethyltridecyl)chroman-6-yloxy)acetate] here?
Answer: > 20 µg/mL

Question: And the EC50 [2]?
Answer: > 20 µg/mL

Question: And the EC50 [3]?
Answer: > 20 µg/mL

Question: What about the EC50 [4] of the same compound?
Answer: > 20 µg/mL

Question: And the EC50 [5]?
Answer: > 20 µg/mL

Question: What about the EC50 [6] of the same compound?
Answer: > 20 µg/mL

Question: And the EC50 [7]?
Answer: > 20 µg/mL

Question: And the EC50 [8]?
Answer: > 20 µg/mL

Question: And the EC50 [9]?
Answer: > 20 µg/mL

Question: And the EC50 [10]?
Answer: > 20 µg/mL

Question: What about the EC50 [11] of the same compound?
Answer: > 20 µg/mL

Question: For Cc1c(C)c2c(c(C)c1OCC(=O)N(CC(=O)O)CC(=O)O)CC[C@@](C)(CCC[C@H](C)CCC[C@H](C)CCCC(C)C)O2 [Compound 12], which EC50 [1] is on record?
Answer: 10 to 20 µg/mL (≈ 16.6 to 33.1 µM)

Question: What about the EC50 [2] of the same compound?
Answer: 20 to 30 µg/mL (≈ 33.1 to 49.7 µM)

Question: And the EC50 [3]?
Answer: 20 to 30 µg/mL (≈ 33.1 to 49.7 µM)

Question: What about the EC50 [4] of the same compound?
Answer: 5 to 10 µg/mL (≈ 8.28 to 16.6 µM)

Question: What about the EC50 [5] of the same compound?
Answer: 5 to 10 µg/mL (≈ 8.28 to 16.6 µM)

Question: What about the EC50 [6] of the same compound?
Answer: 5 to 10 µg/mL (≈ 8.28 to 16.6 µM)

Question: What about the EC50 [7] of the same compound?
Answer: 5 to 10 µg/mL (≈ 8.28 to 16.6 µM)

Question: And the EC50 [8]?
Answer: 10 to 20 µg/mL (≈ 16.6 to 33.1 µM)

Question: What about the EC50 [9] of the same compound?
Answer: 5 to 10 µg/mL (≈ 8.28 to 16.6 µM)

Question: And the EC50 [10]?
Answer: > 20 µg/mL

Question: What about the EC50 [11] of the same compound?
Answer: > 20 µg/mL

Question: And the “growth inhibitory” value [13]?
Answer: effective

Question: How did the EC50 [1] turn out when Cc1c(C)c2c(c(C)c1OCC(=O)O)CCC(C)(C)O2 [Compound 14, 2-(2,5,7,8-pentamethylchroman-6-yloxy)acetic acid] was run?
Answer: > 20 µg/mL

Question: What about the EC50 [2] of the same compound?
Answer: > 20 µg/mL

Question: And the EC50 [3]?
Answer: > 20 µg/mL

Question: And the EC50 [4]?
Answer: > 20 µg/mL

Question: What about the EC50 [5] of the same compound?
Answer: > 20 µg/mL

Question: What about the EC50 [6] of the same compound?
Answer: > 20 µg/mL

Question: And the EC50 [7]?
Answer: > 20 µg/mL

Question: What about the EC50 [8] of the same compound?
Answer: > 20 µg/mL

Question: What about the EC50 [9] of the same compound?
Answer: > 20 µg/mL

Question: And the EC50 [10]?
Answer: > 20 µg/mL

Question: What about the EC50 [11] of the same compound?
Answer: > 20 µg/mL

Question: Cc1c(C)c2c(c(C)c1OCC(=O)O)CC[C@@](C)(CCCC(C)CCCC(C)CCCC(C)C)O2 (some centres unmarked) [Compound 17] was tested. Which EC50 ([14]; Homo sapiens, A549, unit inferred) did it give?
Answer: > 20 µg/mL

Question: And the EC50 [1]?
Answer: 20 to 30 µg/mL (≈ 40.9 to 61.4 µM)

Question: What about the EC50 [2] of the same compound?
Answer: 10 to 20 µg/mL (≈ 20.5 to 40.9 µM)

Question: What about the EC50 [15] of the same compound?
Answer: > 20 µg/mL

Question: And the EC50 ([16]; Homo sapiens, unit inferred)?
Answer: 10 to 20 µg/mL (≈ 20.5 to 40.9 µM)

Question: And the EC50 [3]?
Answer: 10 to 20 µg/mL (≈ 20.5 to 40.9 µM)

Question: What about the EC50 [4] of the same compound?
Answer: 10 to 20 µg/mL (≈ 20.5 to 40.9 µM)

Question: And the EC50 [7]?
Answer: 20 to 30 µg/mL (≈ 40.9 to 61.4 µM)

Question: What about the EC50 [11] of the same compound?
Answer: > 20 µg/mL

Question: And the EC50 [12]?
Answer: 10 to 20 µg/mL (≈ 20.5 to 40.9 µM)

Question: What about the “growth inhibitory” value [13] of the same compound?
Answer: effective

Question: With Cc1c(C)c2c(c(C)c1OCCCN)CC[C@@](C)(CCC[C@H](C)CCCC(C)CCCC(C)C)O2.Cl (some centres unmarked) [Compound 19] as the compound, how does the “apoptotic EC50” value ([14]; unit not given, in µg/mL) read?
Answer: 20-30

Question: What about the “apoptotic EC50” value ([1]; C-170, unit not given, in µg/mL) of the same compound?
Answer: 1-5

Question: What about the “apoptotic EC50” value [17] of the same compound?
Answer: 5-10

Question: And the “apoptotic EC50” value ([2]; HL-60, unit not given, in µg/mL)?
Answer: 10-20

Question: What about the “apoptotic EC50” value ([16]; unit not given, in µg/mL) of the same compound?
Answer: 10-20

Question: And the “apoptotic EC50” value ([3]; unit not given, in µg/mL)?
Answer: 5-10

Question: And the “apoptotic EC50” value ([4]; MCF-7, unit not given, in µg/mL)?
Answer: 10-20

Question: And the “apoptotic EC50” value ([6]; MDA-MB-435, unit not given, in µg/mL)?
Answer: 10-20

Question: And the “apoptotic EC50” value ([7]; ME-180, unit not given, in µg/mL)?
Answer: 1-5

Question: And the “growth inhibitory” value [13]?
Answer: effective
